The values that follow are results of earlier work, collected in US9133180B2, “Aurora and FLT3 kinases modulators” (SAREUM LIMITED, priority 2012, dated 2015).

Molecules are shown by their SMILES.

Series [1] has as its system SW620, HCT-116, Colo205, A549, Calu-6 or HL-60 tumour xenografts. Conditions: HL-60 xenograft; cited from earlier work.
Series [2] relates to treatment-refractory primary Acute Myelogenous Leukemia (AML) cells. Conditions: cells from patients; cited from earlier work.

As to `CCN(CCCOc1ccc2c(Nc3cc(CC(=O)Nc4cccc(F)c4)n[nH]3)ncnc2c1)CCOP(=O)(O)O` [AZD1152], the “complete tumour regression (animals)” value in series [1] was 8 of 11. Consider `Cc1cc(Nc2cc(N3CCN(C)CC3)nc(Sc3ccc(NC(=O)C4CC4)cc3)n2)n[nH]1` [VX-680], for which the “killing of primary AML cells” value in series [2] is given as “potently killed”.
